Values of other authors in patent US20250032463A1, “RAPAMYCIN-CONTAINING PHARMACEUTICAL COMPOSITION” (NOBELPHARMA CO., LTD., priority 2023, published 2025).

## CO[C@H]1C[C@@H]2CC[C@@H](C)[C@@](O)(O2)C(=O)C(=O)N2CCCC[C@H]2C(=O)O[C@H]([C@H](C)C[C@@H]2CC[C@@H](O)[C@H](OC)C2)CC(=O)[C@H](C)/C=C(\C)[C@@H](O)[C@@H](OC)C(=O)[C@H](C)C[C@H](C)/C=C/C=C/C=C/1C [rapamycin, Rapamycin]
  stability in aqueous solvents: unstable
